Data reported in ChEMBL document CHEMBL1126995, “Nonpeptide -turn mimetics of enkephalin” (1993).

Assays:
Mus musculus = species: Mus musculus; assay: Tested for the analgesic activity in mouse writhing assay; format: functional
[1] = molecular target: Mu-type opioid receptor (Rattus norvegicus) (UniProt P33535); assay: Binding affinity against mu opioid receptors from rat brain (minus cerebellum) using [3H]DAMGO (2.0 nM) at 10 uM; format: tissue-based
[2] = molecular target: Delta-type opioid receptor (Rattus norvegicus) (UniProt P33533); assay: Binding affinity against Opioid receptor delta 1 from rat brain using (1.0 nM [3H]DTLET or 1.0 nM [3H]-DSLET) at 6 uM
Delta-type opioid receptor (Rattus norvegicus), sequence (P33533 whole entry): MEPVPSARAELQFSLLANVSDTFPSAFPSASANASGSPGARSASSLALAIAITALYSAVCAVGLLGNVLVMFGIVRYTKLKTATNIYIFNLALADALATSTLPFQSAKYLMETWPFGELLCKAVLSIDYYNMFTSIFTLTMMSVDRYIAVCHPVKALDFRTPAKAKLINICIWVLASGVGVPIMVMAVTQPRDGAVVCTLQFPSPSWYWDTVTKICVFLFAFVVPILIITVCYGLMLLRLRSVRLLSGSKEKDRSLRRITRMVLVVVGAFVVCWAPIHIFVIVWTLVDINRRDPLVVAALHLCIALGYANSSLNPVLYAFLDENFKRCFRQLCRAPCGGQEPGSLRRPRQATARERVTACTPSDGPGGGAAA

Mu-type opioid receptor (Rattus norvegicus), sequence (P33535 whole entry): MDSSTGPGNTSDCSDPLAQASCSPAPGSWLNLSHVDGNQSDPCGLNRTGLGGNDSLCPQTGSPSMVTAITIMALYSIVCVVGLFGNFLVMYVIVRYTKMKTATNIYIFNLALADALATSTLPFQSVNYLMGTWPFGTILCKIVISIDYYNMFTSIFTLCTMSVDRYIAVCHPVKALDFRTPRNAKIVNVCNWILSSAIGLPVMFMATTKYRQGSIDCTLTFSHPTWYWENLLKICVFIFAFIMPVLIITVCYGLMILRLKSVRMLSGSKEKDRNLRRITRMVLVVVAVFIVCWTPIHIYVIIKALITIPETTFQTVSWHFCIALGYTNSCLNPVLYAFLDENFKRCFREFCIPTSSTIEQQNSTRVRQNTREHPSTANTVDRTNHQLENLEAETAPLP

COC(=O)C[C@@H]1CC[C@H](Cc2ccccc2)NC(=O)CCC(CNC(=O)[C@@H](N)Cc2ccc(O)cc2)C(=O)N1 (stereo partly drawn)
ED50 (Mus musculus): <10 µg/mL
Displacement [1]: 53%
Displacement [2]: 50%
